Results as given in patent US11375708B2, “Methods and apparatus for management of mosquito populations with habitat sharing heterospecific insects carrying insect growth regulators” (Rutgers, The State University of New Jersey, priority 2015, dated 2022).

Test system: Aedes albopictus
Test: Room (30 m^3) release of 20 treated Chironomus against 10 sentinel cups, mosquito pupal mortality
Assay type: in vivo
Conditions: 20 treated Chironomus released in 30 m^3 room, 2 days (48 hour exposure), 10 cups each with 250 ml oak infusion
From the text: FIG. 2. Mosquito pupal mortality achieved by releasing oil treated 20 Chironomus adults in a 30 m^3 room for 2 days against 10 sentinel cups. The average pupal mortality of Aedes albopictus was 88±3.5%.
Chironomus females don't need blood feeding and the larvae are easy to culture. […] The larvae developed in cryptic sentinel cups indicated the treated female has visited the cup and laid eggs. In the same cup, pupal mortality of Aedes albpictus indicated the pyriproxyfen transfer (FIG. 5). We further challenged the technology in a meshed tunnel (50×3×2 m) setup in the field with 10 cryptic sentinel cups inside (FIG. 7) by releasing 50 treated C. decorus females for 5 days. […] The backyard experiment was conducted by treating 800 chironomid adults with oil formulation (20% a.i) first and followed with powder formulation (60% a.i) at a separate location to avoid contamination. In this experiment, the active ingredient (a.i.) was pyriproxyfen. In order to avoid any dew effect, release time was in the afternoon between 2 to 5 pm. […]
Adults (males and females) of C. decorus (0 to 2 days old) will be collected and stored in a cage constructed with metal window screen. […] The cage with contaminated Chironomus then will be removed from the bottom of the chamber and ready for release in cases where only oil treatment is desired. […]

CC(COc1ccc(Oc2ccccc2)cc1)Oc1ccccn1 (stereo not shown) [pyriproxyfen]
average pupal mortality of Aedes albopictus: 88.5±3.5%
